We go through 15 compounds from patent US9556152B2, “Heterocyclic amides as kinase inhibitors” (GlaxoSmithKline Intellectual Property Development Limited, priority 2013, dated 2017).

Assay [1] concerns mouse TNF and zVAD induced temperature loss in mice. Briefly: TNF/zVAD-driven systemic inflammatory response syndrome model (short modality), temperature loss. In kind it is in vivo. The protocol: (§1) TNF (or TNF/zVAD) induced manifestations include temperature loss, the production of numerous cytokines (including IL-6, IL-1b, MIP1β and MIP2) in the periphery, liver and intestinal inflammation and an increase of markers of cellular (LDH and CK) and liver damage (AST and ALT) in the serum.
Each test compound is run through the TNF/zVAD and TNF (alone) versions of the model. For example, mice (7 mice per group) were orally pre-dosed with vehicle or test compound at 50 mg/kg 15 minutes before i.v. administration of mouse TNF (30 m/mouse) and zVAD (0.4 mg/mouse) simultaneously. Temperature loss in the mice was measured by rectal probe. The study was terminated when the control group lost 7 degrees, per our IACUC protocol. […] All data are shown as means±standard error of the mean.

In assay [2] the target is T1, RIP1 kinase (GST-RipK1 (1-375)) (Homo sapiens, UniProt Q13546).
T1 sequence (Q13546 1-375): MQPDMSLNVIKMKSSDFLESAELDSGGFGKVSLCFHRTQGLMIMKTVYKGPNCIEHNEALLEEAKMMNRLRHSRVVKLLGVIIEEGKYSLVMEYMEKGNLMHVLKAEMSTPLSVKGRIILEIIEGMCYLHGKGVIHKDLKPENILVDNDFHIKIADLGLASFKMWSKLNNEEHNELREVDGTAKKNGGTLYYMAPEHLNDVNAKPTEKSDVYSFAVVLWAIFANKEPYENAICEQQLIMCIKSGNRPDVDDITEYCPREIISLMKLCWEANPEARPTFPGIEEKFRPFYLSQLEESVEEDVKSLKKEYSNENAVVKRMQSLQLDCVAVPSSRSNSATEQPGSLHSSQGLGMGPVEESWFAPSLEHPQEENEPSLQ
Procedure: A fluorescent polarization based binding assay was developed to quantitate interaction of novel test compounds at the ATP binding pocket of RIP1, by competition with a fluorescently labeled ATP competitive ligand. […] Following the incubation, 5 ul of the fluorescent labeled ligand solution, was added to each reaction, at twice the final assay concentration, and incubated at room temperature for at least 15 minutes. Finally, samples were read on an instrument capable of measuring fluorescent polarization. Test compound inhibition was expressed as percent (%) inhibition of internal assay controls. For concentration response experiments, normalized data were fit and pIC50s determined using conventional techniques.

Assay [3] concerns mouse TNF induced temperature loss in mice. Briefly: TNF (alone)-driven systemic inflammatory response syndrome model (long modality), temperature loss. In kind it is in vivo. The conditions noted are these: oral pre-dose 50 mg/kg 15 minutes before i.v. mouse TNF. As to the method: as §1
In addition to the TNF/zVAD model, each compound is also tested in a TNF alone model. For the TNF (alone) version of the model, mice (7 mice per group) were orally pre-dosed with vehicle or test compound at 50 mg/kg 15 minutes before i.v. administration of mouse TNF (30 m/mouse). […] All data are shown as means±standard error of the mean.

[4] abbreviates: oral pre-dose 30 mg/kg 15 minutes before i.v. mouse TNF and zVAD.
Where [5] appears, read: mean pIC50, FP competition binding, GST-RipK1 (1-375) 10 nM, fluorescent ligand 5 nM, mean of minimum 2 experiments.
Setting [6] is: oral pre-dose 10 mg/kg 15 minutes before i.v. mouse TNF and zVAD.
Where [7] appears, read: average pIC50 after continued testing, FP competition binding, updated average after continued testing.

Read-outs that look alike come from different tables or passages of the source.

Usually % Inhibition stands for the share of the control response that was lost under treatment. Low readings indicate little suppression, high ones strong suppression. As for `CN1C(=O)[C@@H](NC(=O)c2cc(Cc3ccccc3)n[nH]2)COc2ccccc21` [Example 108, (S)-3-benzyl-N-(5-methyl-4-oxo-2,3,4,5-tetrahydrobenzo[b] [1,4]oxazepin-3-yl)-1H-pyrazole-5-carboxamide], in assay [1] (setting [4]), the “% Inhibition” value is 56%.
As usually defined, the IC50 is the concentration that inhibits the measured activity by half. The low end stands for greater potency in that assay, the high end for weaker potency in that assay. The compound `CN1C(=O)[C@@H](NC(=O)c2nnc(Cc3ccccc3)[nH]2)COc2cccc(F)c21` [Example 91, (S)-5-benzyl-N-(6-fluoro-5-methyl-4-oxo-2,3,4,5-tetrahydrobenzo[b] [1,4]oxazepin-3-yl)-4H-1,2,4-triazole-3-carboxamide] gave an IC50 in assay [2] (setting [5]) of about 25.1 nM.
As for `O=C(N[C@H]1CCc2ccccc2NC1=O)c1cc(Cc2ccccc2)on1` [Example 236, (S)-5-benzyl-N-(2-oxo-2,3,4,5-tetrahydro-1H-benzo[b]azepin-3-yl)isoxazole-3-carboxamide], the “% Inhibition” value in assay [1] (setting [4]) is reported as 23%.
`CN1C(=O)[C@@H](NC(=O)c2cc(Cc3ccccc3)on2)CNc2ccccc21` [Example 235, (S)-5-benzyl-N-(1-methyl-2-oxo-2,3,4,5-tetrahydro-1H-benzo[b] [1,4]diazepin-3-yl)isoxazole-3-carboxamide]: the “% Inhibition” value worked out at 58% in assay [1] (setting [4]) and 73% in assay [3].
`Cc1ccc(Cc2cc(C(=O)N[C@H]3CNc4ccccc4N(C)C3=O)n[nH]2)cc1` [Example 64, (S)-N-(1-methyl-2-oxo-2,3,4,5-tetrahydro-1H-benzo[b][1,4]diazepin-3-yl)-5-(4-methylbenzyl)-1H-pyrazole-3-carboxamide]: in assay [1] (setting [4]), the “% Inhibition” value was 62%.
Take `CN1C(=O)[C@@H](NC(=O)c2cc(Cc3ccccc3)n[nH]2)COc2ccc(Br)cc21` [Example 20, (S)-3-benzyl-N-(7-bromo-5-methyl-4-oxo-2,3,4,5-tetrahydrobenzo[b] [1,4]oxazepin-3-yl)-1H-pyrazole-5-carboxamide]: the “% Inhibition” value in assay [1] (setting [4]) was found to be 52%; in assay [3], 51%.
With `Cc1ccc(Cc2cc(C(=O)N[C@H]3COc4ccccc4N(C)C3=O)[nH]n2)cc1` [Example 176, (S)-N-(5-methyl-4-oxo-2,3,4,5-tetrahydrobenzo[b] [1,4]oxazepin-3-yl)-5-(4-methylbenzyl)-1H-pyrazole-3-carboxamide], in assay [1] (setting [4]), the “% Inhibition” value is recorded as 34%.
`CN1C(=O)[C@@H](NC(=O)c2ncn(Cc3ccccc3)n2)COc2ccccc21` [Example 45, (S)-1-benzyl-N-(5-methyl-4-oxo-2,3,4,5-tetrahydrobenzo[b] [1,4]oxazepin-3-yl)-1H-1,2,4-triazole-3-carboxamide]: in assay [1] (setting [6]), the “% Inhibition” value is 91%.
In the case of `O=C(N[C@H]1CCc2cc(Cl)ccc2NC1=O)c1nnc(Cc2ccccc2)[nH]1` [Example 161, (S)-5-benzyl-N-(7-chloro-2-oxo-2,3,4,5-tetrahydro-1H-benzo[b]azepin-3-yl)-4H-1,2,4-triazole-3-carboxamide], the values for the IC50 in assay [2] (setting [7]) and in assay [2] (setting [5]) were 20 nM and about 12.6 nM, respectively. For the same compound, the “% Inhibition” value is 85% in assay [1] (oral pre-dose 50 mg/kg 15 minutes before i.v. mouse TNF and zVAD); 82% in assay [3].
Compound `Cc1cc(F)c2c(c1)OC[C@H](NC(=O)c1nnc(CC3CCCC3)[nH]1)C(=O)N2` [Example 102, (S)-5-(cyclopentylmethyl)-N-(6-fluoro-8-methyl-4-oxo-2,3,4,5-tetrahydrobenzo[b] [1,4]oxazepin-3-yl)-4H-1,2,4-triazole-3-carboxamide] had an IC50 in assay [2] (setting [5]) of about 15.8 nM.
As to `CN1C(=O)[C@@H](NC(=O)c2cc(Oc3ccccc3)ccn2)COc2ccccc21` [Example 97, (S)-N-(5-methyl-4-oxo-2,3,4,5-tetrahydrobenzo[b] [1,4]oxazepin-3-yl)-4-phenoxypicolinamide], the “% Inhibition” value in assay [1] (setting [4]) came out at 70%.
In the case of `CN1C(=O)[C@@H](NC(=O)c2cc(Cc3ccccc3)[nH]n2)CNc2ccccc21` [Example 190, (S)-5-benzyl-N-(1-methyl-2-oxo-2,3,4,5-tetrahydro-1H-benzo[b] [1,4]diazepin-3-yl)-1H-pyrazole-3-carboxamide], the entries for the “% Inhibition” value in assay [1] (setting [4]) and in assay [3] were 85% and 56%, respectively.
On to `O=C(N[C@H]1CCc2cc(Br)ccc2NC1=O)c1nnc(Cc2ccccc2)[nH]1` [Example 163, (S)-5-benzyl-N-(7-bromo-2-oxo-2,3,4,5-tetrahydro-1H-benzo[b]azepin-3-yl)-4H-1,2,4-triazole-3-carboxamide], for which, in assay [2] (setting [5]), the IC50 was about 12.6 nM. For the same compound, the “% Inhibition” value in assay [1] (setting [6]) is 73%.
For `CN1C(=O)[C@@H](NC(=O)c2cc(Cc3ccc(F)cc3)n[nH]2)COc2ccccc21` [Example 125, (S)-3-(4-fluorobenzyl)-N-(5-methyl-4-oxo-2,3,4,5-tetrahydrobenzo[b] [1,4]oxazepin-3-yl)-1H-pyrazole-5-carboxamide], in assay [1] (setting [4]), the “% Inhibition” value was found to be 25%.
Take `Cc1nnc(-c2ccc3c(c2)N(C)C(=O)[C@@H](NC(=O)c2nnc(Cc4ccccc4)[nH]2)CO3)o1` [Example 169, (S)-5-benzyl-N-(5-methyl-7-(5-methyl-1,3,4-oxadiazol-2-yl)-4-oxo-2,3,4,5-tetrahydrobenzo[b][1, 4]oxazepin-3-yl)-4H-1,2,4-triazole-3-carboxamide]: the IC50 in assay [2] (setting [7]) was 50.1 nM; in assay [2] (setting [5]), about 63.1 nM.
